Active and inactive are the calls of the source. The rule behind the calls is not given here.
What was measured:
[1] = biological target: Mitogen-activated protein kinase 8 (Homo sapiens) (UniProt P45983); test: Inhibition of human JNK1 at 500 nM by HotSpot assay relative to control
[2] = biological target: T1, Ephrin type-B receptor 1 (Homo sapiens) (UniProt P54762); test: Inhibition of human EPHB1 at 500 nM by HotSpot assay relative to control
T1 sequence (whole entry): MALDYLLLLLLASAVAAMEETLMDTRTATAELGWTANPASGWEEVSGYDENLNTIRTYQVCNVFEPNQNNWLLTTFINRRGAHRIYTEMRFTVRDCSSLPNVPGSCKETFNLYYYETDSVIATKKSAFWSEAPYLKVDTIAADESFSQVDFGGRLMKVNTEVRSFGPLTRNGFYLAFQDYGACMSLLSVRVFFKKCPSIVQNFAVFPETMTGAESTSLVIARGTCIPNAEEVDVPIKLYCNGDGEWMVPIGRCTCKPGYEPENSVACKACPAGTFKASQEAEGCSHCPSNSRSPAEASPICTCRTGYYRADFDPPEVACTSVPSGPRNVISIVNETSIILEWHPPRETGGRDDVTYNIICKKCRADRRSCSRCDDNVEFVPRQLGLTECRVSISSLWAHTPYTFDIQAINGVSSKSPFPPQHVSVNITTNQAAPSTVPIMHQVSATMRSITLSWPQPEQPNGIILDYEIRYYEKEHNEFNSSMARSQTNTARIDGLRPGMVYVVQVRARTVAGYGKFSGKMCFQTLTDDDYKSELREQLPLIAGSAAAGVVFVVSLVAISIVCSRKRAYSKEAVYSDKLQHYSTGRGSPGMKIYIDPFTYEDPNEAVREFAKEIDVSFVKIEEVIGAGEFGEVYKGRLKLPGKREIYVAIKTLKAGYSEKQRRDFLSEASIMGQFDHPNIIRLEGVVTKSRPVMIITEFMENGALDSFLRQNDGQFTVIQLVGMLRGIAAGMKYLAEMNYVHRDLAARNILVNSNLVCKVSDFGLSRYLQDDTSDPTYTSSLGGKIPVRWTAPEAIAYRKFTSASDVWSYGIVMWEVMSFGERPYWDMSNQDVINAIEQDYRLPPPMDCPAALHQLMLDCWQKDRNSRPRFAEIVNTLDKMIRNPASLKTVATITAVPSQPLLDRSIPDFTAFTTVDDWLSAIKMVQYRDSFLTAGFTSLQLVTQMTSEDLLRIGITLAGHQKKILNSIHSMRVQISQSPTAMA

[3] = biological target: Protein-tyrosine kinase 6 (Homo sapiens) (UniProt Q13882); test: Inhibition of human BRK at 500 nM by HotSpot assay relative to control
[4] = biological target: Mitogen-activated protein kinase kinase kinase 7 (Homo sapiens) (UniProt O43318); test: Inhibition of human TAK1 at 500 nM by HotSpot assay relative to control
[5] = biological target: Death-associated protein kinase 2 (Homo sapiens) (UniProt Q9UIK4); test: Inhibition of human DAPK2 at 500 nM by HotSpot assay relative to control
[6] = biological target: Serine/threonine-protein kinase SIK2 (Homo sapiens) (UniProt Q9H0K1); test: Inhibition of human SIK2 at 500 nM by HotSpot assay relative to control
[7] = Inhibition of unphosphorylated human Insulin receptor (978 to 1283 residues) C981S mutant kinase domain expressed in baculovirus infected Sf9 cells incubated for 1 hr by [gamma-33P]ATP assay
[8] = biological target: Protein kinase C delta type (Homo sapiens) (UniProt Q05655); test: Inhibition of human PKCd at 500 nM by HotSpot assay relative to control
[9] = biological target: Leucine-rich repeat serine/threonine-protein kinase 2 (Homo sapiens) (UniProt Q5S007); test: Inhibition of human LRRK2 at 500 nM by HotSpot assay relative to control
[10] = biological target: Mast/stem cell growth factor receptor Kit (Homo sapiens) (UniProt P10721); test: Inhibition of human c-Kit at 500 nM by HotSpot assay relative to control
[11] = biological target: Serine/threonine-protein kinase WNK3 (Homo sapiens) (UniProt Q9BYP7); test: Inhibition of human WNK3 at 500 nM by HotSpot assay relative to control
[12] = biological target: Dual specificity tyrosine-phosphorylation-regulated kinase 1A (Homo sapiens) (UniProt Q13627); test: Inhibition of human DYRK1 at 500 nM by HotSpot assay relative to control
[13] = biological target: Ribosomal protein S6 kinase beta-1 (Homo sapiens) (UniProt P23443); test: Inhibition of human RPS6KB1 at 500 nM by HotSpot assay relative to control
[14] = biological target: Mitogen-activated protein kinase 1 (Homo sapiens) (UniProt P28482); conditions: dose 500.0 nM
Description: Inhibition of human ERK2 at 500 nM by HotSpot assay relative to control

[15] = biological target: Ephrin type-A receptor 5 (Homo sapiens) (UniProt P54756); test: Inhibition of human EPHA5 at 500 nM by HotSpot assay relative to control
[16] = biological target: T2, NUAK family SNF1-like kinase 2 (Homo sapiens) (UniProt Q9H093); test: Inhibition of human NUAK2 at 500 nM by HotSpot assay relative to control
T2 sequence (whole entry): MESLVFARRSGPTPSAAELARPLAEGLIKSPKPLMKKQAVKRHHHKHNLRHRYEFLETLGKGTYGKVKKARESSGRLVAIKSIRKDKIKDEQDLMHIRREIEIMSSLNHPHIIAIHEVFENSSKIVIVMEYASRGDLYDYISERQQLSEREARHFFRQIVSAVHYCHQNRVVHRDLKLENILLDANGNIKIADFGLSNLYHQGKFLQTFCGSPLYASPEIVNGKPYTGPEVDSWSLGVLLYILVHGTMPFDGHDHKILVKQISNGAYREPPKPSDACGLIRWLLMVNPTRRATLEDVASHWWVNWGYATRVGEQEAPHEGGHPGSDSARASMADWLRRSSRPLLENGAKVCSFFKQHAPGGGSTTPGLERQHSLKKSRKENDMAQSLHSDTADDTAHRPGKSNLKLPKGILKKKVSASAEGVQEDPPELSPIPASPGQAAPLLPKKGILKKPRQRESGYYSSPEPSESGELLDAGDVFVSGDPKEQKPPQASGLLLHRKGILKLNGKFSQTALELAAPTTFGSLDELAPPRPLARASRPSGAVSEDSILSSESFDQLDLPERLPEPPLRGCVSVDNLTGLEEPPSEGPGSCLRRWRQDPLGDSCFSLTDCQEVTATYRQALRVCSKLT

Chain of Mast/stem cell growth factor receptor Kit (Homo sapiens) (P10721 whole entry): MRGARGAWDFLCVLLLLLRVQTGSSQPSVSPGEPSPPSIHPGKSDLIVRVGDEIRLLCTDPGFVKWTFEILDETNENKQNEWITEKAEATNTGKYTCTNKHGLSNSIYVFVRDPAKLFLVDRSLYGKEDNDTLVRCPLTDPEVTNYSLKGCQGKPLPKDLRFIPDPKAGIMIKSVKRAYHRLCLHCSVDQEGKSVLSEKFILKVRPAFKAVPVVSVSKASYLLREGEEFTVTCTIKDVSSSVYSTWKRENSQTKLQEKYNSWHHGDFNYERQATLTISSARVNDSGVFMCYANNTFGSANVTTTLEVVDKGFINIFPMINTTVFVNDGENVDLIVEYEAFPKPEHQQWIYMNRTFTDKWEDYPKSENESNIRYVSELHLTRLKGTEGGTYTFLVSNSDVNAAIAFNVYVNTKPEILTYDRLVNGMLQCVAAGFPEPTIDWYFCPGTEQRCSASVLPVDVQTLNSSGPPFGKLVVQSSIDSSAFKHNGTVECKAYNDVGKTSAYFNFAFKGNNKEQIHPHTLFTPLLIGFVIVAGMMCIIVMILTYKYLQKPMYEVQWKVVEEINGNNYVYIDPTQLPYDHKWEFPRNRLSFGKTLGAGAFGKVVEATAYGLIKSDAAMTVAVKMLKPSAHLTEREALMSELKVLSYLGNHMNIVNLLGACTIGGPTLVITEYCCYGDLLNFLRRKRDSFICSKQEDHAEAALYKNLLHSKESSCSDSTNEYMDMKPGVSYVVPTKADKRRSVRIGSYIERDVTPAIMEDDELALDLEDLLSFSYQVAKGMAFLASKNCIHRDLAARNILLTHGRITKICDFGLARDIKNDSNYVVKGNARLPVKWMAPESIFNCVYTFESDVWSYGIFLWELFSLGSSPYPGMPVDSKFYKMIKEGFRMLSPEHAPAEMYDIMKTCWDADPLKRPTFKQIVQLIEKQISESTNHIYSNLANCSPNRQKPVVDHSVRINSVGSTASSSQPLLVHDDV
Chain of Mitogen-activated protein kinase 8 (Homo sapiens) (P45983 whole entry): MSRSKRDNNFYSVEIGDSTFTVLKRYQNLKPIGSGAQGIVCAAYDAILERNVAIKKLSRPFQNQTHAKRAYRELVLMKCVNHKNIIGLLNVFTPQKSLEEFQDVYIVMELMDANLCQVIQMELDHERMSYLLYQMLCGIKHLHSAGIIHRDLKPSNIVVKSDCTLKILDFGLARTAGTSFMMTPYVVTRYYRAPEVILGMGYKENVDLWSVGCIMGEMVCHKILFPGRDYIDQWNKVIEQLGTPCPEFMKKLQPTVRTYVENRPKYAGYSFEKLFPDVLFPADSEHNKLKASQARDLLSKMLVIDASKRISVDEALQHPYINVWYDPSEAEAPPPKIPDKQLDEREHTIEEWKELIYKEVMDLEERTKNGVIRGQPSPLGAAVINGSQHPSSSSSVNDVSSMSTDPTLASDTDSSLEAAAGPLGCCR
Chain of Leucine-rich repeat serine/threonine-protein kinase 2 (Homo sapiens) (Q5S007 whole entry): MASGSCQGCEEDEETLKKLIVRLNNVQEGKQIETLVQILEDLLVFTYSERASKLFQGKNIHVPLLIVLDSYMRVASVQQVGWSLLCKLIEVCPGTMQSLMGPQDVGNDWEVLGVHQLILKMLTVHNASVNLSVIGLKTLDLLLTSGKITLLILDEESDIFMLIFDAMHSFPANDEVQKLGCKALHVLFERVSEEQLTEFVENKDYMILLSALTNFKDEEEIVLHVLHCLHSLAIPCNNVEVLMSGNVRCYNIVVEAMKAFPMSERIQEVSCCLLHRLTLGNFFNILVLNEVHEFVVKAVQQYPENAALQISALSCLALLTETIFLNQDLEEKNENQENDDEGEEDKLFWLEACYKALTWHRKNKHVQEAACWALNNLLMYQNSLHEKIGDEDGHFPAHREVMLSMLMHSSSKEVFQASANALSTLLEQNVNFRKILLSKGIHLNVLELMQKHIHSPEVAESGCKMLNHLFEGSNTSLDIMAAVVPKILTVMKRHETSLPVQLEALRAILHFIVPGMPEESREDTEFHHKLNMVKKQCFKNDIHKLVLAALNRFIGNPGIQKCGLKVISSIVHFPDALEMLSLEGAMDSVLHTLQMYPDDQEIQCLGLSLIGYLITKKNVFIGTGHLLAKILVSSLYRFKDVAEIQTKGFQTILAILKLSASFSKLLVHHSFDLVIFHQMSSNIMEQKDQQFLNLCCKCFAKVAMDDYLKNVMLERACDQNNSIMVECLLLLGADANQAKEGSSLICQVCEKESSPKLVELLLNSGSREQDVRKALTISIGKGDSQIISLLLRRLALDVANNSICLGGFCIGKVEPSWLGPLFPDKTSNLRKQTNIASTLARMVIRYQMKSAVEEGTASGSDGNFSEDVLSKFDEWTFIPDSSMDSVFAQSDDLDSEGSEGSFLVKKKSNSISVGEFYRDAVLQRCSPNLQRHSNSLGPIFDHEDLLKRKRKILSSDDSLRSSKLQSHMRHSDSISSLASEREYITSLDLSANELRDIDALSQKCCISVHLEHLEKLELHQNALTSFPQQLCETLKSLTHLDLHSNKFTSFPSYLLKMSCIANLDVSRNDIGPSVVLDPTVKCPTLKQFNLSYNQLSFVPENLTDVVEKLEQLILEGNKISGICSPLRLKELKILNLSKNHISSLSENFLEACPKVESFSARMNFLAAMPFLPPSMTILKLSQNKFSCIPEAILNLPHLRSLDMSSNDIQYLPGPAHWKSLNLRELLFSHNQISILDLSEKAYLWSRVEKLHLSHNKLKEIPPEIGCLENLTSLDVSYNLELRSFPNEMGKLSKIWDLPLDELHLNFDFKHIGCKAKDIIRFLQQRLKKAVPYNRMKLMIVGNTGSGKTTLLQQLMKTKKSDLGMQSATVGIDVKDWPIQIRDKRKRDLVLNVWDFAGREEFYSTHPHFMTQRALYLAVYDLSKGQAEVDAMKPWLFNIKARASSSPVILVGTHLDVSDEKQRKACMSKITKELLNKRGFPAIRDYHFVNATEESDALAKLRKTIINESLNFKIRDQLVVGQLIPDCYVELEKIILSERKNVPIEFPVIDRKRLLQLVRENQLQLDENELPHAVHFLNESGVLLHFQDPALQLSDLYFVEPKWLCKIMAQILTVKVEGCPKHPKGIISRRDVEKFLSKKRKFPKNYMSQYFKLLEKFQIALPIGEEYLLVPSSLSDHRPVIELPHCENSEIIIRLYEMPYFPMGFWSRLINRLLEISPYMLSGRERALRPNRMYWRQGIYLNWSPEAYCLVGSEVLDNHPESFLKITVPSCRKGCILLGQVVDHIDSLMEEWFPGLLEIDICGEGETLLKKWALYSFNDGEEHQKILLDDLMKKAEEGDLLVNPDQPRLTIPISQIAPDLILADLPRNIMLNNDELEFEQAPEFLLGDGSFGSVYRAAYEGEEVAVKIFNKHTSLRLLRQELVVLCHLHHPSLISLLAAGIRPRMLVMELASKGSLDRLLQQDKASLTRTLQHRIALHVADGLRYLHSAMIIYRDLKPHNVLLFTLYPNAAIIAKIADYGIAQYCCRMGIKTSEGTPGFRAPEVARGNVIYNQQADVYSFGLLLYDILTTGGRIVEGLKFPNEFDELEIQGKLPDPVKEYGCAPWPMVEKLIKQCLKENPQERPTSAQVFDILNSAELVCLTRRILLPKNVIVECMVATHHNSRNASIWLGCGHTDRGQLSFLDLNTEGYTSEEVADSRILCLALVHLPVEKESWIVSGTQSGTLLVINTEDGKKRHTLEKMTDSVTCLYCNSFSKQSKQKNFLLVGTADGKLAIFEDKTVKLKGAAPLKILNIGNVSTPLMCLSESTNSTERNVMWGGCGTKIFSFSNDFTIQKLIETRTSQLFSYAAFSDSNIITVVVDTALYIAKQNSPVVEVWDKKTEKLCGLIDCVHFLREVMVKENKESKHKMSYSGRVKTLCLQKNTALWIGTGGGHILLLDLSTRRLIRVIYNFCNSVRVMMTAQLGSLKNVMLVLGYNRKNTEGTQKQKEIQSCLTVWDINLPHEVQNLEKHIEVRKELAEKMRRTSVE
Chain of Protein-tyrosine kinase 6 (Homo sapiens) (Q13882 whole entry, looked up): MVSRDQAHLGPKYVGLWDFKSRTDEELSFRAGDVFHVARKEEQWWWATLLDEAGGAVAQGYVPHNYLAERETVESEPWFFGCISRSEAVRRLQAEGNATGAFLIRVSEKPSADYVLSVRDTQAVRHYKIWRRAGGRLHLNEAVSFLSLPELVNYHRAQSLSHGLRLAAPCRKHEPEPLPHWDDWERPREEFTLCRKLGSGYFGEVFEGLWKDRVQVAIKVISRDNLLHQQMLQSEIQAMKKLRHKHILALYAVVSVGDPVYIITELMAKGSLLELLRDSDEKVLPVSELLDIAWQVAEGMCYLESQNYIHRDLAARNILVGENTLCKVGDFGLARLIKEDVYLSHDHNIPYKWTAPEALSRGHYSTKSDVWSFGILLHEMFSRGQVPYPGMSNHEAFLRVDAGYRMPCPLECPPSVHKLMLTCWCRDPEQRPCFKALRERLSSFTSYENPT
Chain of Mitogen-activated protein kinase kinase kinase 7 (Homo sapiens) (O43318 whole entry, looked up): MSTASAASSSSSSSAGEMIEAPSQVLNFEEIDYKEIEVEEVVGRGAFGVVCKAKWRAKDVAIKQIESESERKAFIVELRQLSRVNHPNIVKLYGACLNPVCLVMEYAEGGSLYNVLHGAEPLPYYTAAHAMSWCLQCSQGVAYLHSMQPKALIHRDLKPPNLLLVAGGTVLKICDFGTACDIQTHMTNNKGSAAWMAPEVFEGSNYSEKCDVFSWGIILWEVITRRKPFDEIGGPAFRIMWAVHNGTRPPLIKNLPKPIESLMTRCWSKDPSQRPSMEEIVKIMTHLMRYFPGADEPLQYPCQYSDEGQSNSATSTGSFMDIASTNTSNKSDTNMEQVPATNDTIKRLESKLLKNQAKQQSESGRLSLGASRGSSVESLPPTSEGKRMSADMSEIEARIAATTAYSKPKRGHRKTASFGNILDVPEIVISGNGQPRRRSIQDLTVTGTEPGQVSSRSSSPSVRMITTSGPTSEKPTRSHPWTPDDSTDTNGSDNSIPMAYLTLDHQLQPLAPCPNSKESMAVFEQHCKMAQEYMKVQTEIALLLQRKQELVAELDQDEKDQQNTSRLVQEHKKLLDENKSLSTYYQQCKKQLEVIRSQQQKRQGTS

Nc1n[nH]c2nnc(-c3c(-c4ccccc4)nn4ccccc34)cc12
inhibition [1]: 1.96%
inhibition [2]: 1.38%
inhibition [3]: 9.19%
inhibition [4]: -1.47%
inhibition [5]: -2.75%
inhibition [6]: 6.36%
inhibition [7]: Active
inhibition [8]: 68.8%
inhibition [9]: 8.17%
inhibition [10]: 2.89%
inhibition [11]: -1.28%
inhibition [12]: -1.99%
inhibition [13]: 2.28%
inhibition [14]: 12.8%
inhibition [15]: -0.54%
inhibition [16]: 12.7%

Oc1n[nH]c2nnc(-c3c(-c4ccccc4)nn4ccccc34)cc12
inhibition [1]: 16.7%
inhibition [2]: 2.52%
inhibition [3]: 0.52%
inhibition [4]: -3.14%
inhibition [5]: -0.84%
inhibition [6]: 14.5%
inhibition [7]: Active
inhibition [8]: 2.29%
inhibition [9]: -1.49%
inhibition [10]: 0.91%
inhibition [11]: 0.29%
inhibition [12]: -2.58%
inhibition [13]: -2.37%
inhibition [14]: -0.62%
inhibition [15]: -0.84%
inhibition [16]: -6.46%
